Assays:
C57BL/6J mice [1] = experiment: The lipid-lowering effect in C57BL/6J mice (high-fat diet); format: in vivo; conditions: HFD, after 21 days
Procedure: (§1) 8-week C57BL/6J mice are divided into standard diet (STD) group and the high-fat diet (HFD) group. In the HFD group, the KMUP-1 HCl salt (1, 2.5 and 5 mg/kg), the simvastatin (5 mg/kg), the KMUP-1-Nicotinic acid complex (1 and 5 mg/kg), the KMUP-1-Simvastatinic acid complex (1 and 5 mg/kg), KMUP-1-Gemfibrozil complex (2.5 mg/kg), KMUP-1-Fibric acid complex (2.5 mg/kg), KMUP-1-γ-polyglutamic acid complex (2.5 mg/kg) and KMUP-1-Citric acid complex (2.5 mg/kg) are administered orally. After 21 days, the amounts (mg/dl) of the triglyceride (TG), the total cholesterol (tot.-C), the high density lipoprotein cholesterol (HDL-C), the low density lipoprotein cholesterol (LDL-C) and the serum glucose of six mice for each group are measured as shown in Tables 2 and 3.

C57BL/6J mice [2] = experiment: The amount of the serum glucose and insulin in C57BL/6J mice (high-fat diet); format: in vivo; conditions: 1 mg/kg orally, HFD, after 21 days
Procedure: as §1

[3] = tested on: STZ-induced diabetic rats; experiment: Serum glucose and body weight in streptozosin (STZ)-induced diabetic rats; format: in vivo; conditions: after 21 days
Procedure: 2. The effect of KMUP-1 on decreasing the amount of the serum glucose in streptozosin (STZ)-induced diabetic rats
60 mg/kg of streptozosin is injected intravenously for inducing the STZ-induced rats, and the KMUP-1 HCl salt (0.5, 1.5, 2.5 and 5 mg/kg) and KMUP-1-Simvastatinic acid (5 mg/kg) are administered orally. After 21 days, the amount of the serum glucose (mg/dl), the amount of the serum insulin (mg/dl), the body weight (g) and the change of the body weight are measured.

[4] = tested on: STZ-induced diabetic rats; experiment: Change of insulin and fasting blood glucose after administration, STZ-induced diabetic rats; format: in vivo
Procedure: Nateglinide, repaglinide or the placebo is administered on day 1 before one hour of the breakfast, and the KMUP-1/KMUP-1-Nateglinide or KMUP-1-Repaglinide are orally administered at 1, 2, 3, 4, 5 and 6 hrs respectively. The amount of the serum glucose (mg/dl), the amount of the serum insulin (mg/dl), the body weight (g) and the change of the body weight are measured.

[5] = tested on: U46619-induced platelet aggregation; experiment: Antiplatelet aggregation activity (U46619-induced, turbidity, Lumi-aggregometer); format: cell-based; conditions: 20 μM, rabbit platelets, n=8
Procedure: 4. […] After centrifuging at […] for 10 mins, the supernatant is platelet-rich plasma (PRP). The platelet suspension is obtained from EDTA-anticoagulated PRP, and the platelet granules are finally suspended in the Tyrode's solution. […] The turbidity is measured at 37° C. by Lumi-aggregometer connected with two dual channel recorders as the aggregation.

[6] = tested on: monocrotaline (MCT)-treated rats; experiment: Pulmonary artery blood pressure in monocrotaline (MCT)-treated rats; format: in vivo, male Wistar rats; conditions: 2.5 mg/kg/day p.o.
Procedure: 5. the monocrotaline (MCT)-treated rats show the […] pulmonary aterial hypertension
Pulmonary aterial hypertension in MCT-treated rats is caused on day 21 after the intraperitoneal injection. Orally administered KMUP-1 HCl salt (2.5 mg/kg), simvastatin (2.5 mg/kg), KMUP-1-nicotinic acid complex (2.5 mg/kg), KMUP-1-Citric acid complex (2.5 mg/kg), KMUP-1-Simvastatinic acid complex (2.5 mg/kg) and KMUP-1-γ-Polyglutamic acid complex (2.5 mg/kg), or the inhalated KMUP-1-PGI2 (0.1 mM) every day may inhibit the male Wistar rats treated with MCT, which show the effect of decreasing the pulmonary artery blood pressure (PABP).

TGF-β = experiment: Bleomycin-induced lung fibrosis in mice, TGF-β expression by EIA; format: in vivo; conditions: 2.5 mg/kg orally, bleomycin 60 mg/kg
Procedure: 6. KMUP-1 salts inhibit the lung fibrosis in mice induced by bleomycin (BM) mediated via transforming growth factor beta (TGF-β) expression in lung The increased amount of the synthetic collagen and the generation of the macrophage in alveolus may facilitate the formulation of TGF-β, and the expression of TGF-β is looked as a biomarker of the lung fibrosis. […] The state of the TGF-β expression in the irrigation solution is measured by the enzyme immunoassay (EIA).

[7] = tested on: testosterone-induced mice; experiment: Prostate hypertrophy (BPH) in testosterone-induced mice; format: in vivo; conditions: 2.5 mg/kg, testosterone 3 mg/kg/day for 4 weeks, day 28, n=6
Procedure: The testosterone (TS, 3 mg/kg/day) is administered for 4 weeks for inducing BPH in mice, which combines with KMUP-1 HCl salt (2.5 mg/kg), KMUP-1-Citric acid (2.5 mg/kg) and KMUP-1-Nicotinic acid (2.5 mg/kg), and the ratio of hypertrophy (g)/body weight (g) is measured at day 28 (n=6).

H1N1 virus = format: cell-based; conditions: MDCK culture infected with H1N1 virus
L1210 leukemia cell line = experiment: Cytotoxicity to cancer cells, MTT assay; format: cell-based; conditions: 3 days, n=6
Procedure: The methotrexate (MTX) is served as the positive control group. Briefly, the cancer cells (5000-10000 cells/ml) is added together with the compounds to be tested into each well of 96-well plate. After culturing for 3 days, the attached cells are cultured in MTT (0.5 mg/ml) for one hour, followed by dissolving the formazan crystal with dimethyl sulfoxide (DMSO). The absorption at 550 nm wave length is measured by the enzyme linked immunosorbent assay (ELISA) reader. IC50 is the concentration of the tested compound for inhibiting 50% cell growth under the experimental conditions.

RAW 264.7 cells = experiment: Inhibition of RANKL-induced osteoclast differentiation (TRAP staining); format: cell-based; conditions: 5 μM, RANKL 10 μg/ml, 5 days, n=5

Cl.Cn1c(=O)c2c(ncn2CCN2CCN(c3ccccc3Cl)CC2)n(C)c1=O [KMUP-1 HCl salt, 7-[2-[4-(2-chlorobenzene)piperazinyl]ethyl]-1,3-dimethyl xanthine HCl]
HDL-C (C57BL/6J mice [1]; 2.5 mg/kg orally): 103.55 ± 4.2 mg/dL
LDL-C (C57BL/6J mice [1]; 2.5 mg/kg orally): 14.17 ± 1.4 mg/dL
TG (C57BL/6J mice [1]; 2.5 mg/kg orally): 74.5 ± 5.1 mg/dL
tot.-C (C57BL/6J mice [1]; 2.5 mg/kg orally): 133 ± 5.1 mg/dL
HDL-C (C57BL/6J mice [1]; 5 mg/kg orally): 118.32 ± 5.7 mg/dL
LDL-C (C57BL/6J mice [1]; 5 mg/kg orally): 14.2 ± 2.2 mg/dL
TG (C57BL/6J mice [1]; 5 mg/kg orally): 72.67 ± 4.7 mg/dL
tot.-C (C57BL/6J mice [1]; 5 mg/kg orally): 125.5 ± 9.8 mg/dL
The amount of serum glucose (C57BL/6J mice [2]): 120.4 ± 4.2 mg/dL
The amount of the serum glucose ([3]; 0.5 mg/kg orally): 215.4 ± 19.6 mg/dL
The amount of the serum glucose ([3]; 1.5 mg/kg orally): 215.4 ± 23.8 mg/dL
The amount of the serum glucose ([3]; 2.5 mg/kg orally): 210.4 ± 15.7 mg/dL
The amount of the serum glucose ([3]; 5 mg/kg orally): 200.2 ± 14.2 mg/dL
The change of the fasting blood glucose after administration ([4]; 1 mg/kg, 1 hr): 3.7 ± 0.6 mg/dL
The change of the insulin after administration ([4]; 1 mg/kg, 1 hr): 10.1 ± 1.8 U/mL
The change of the fasting blood glucose after administration ([4]; 1 mg/kg, 2 hr): 2.3 ± 0.7 mg/dL
The change of the insulin after administration ([4]; 1 mg/kg, 2 hr): 16.4 ± 2.2 U/mL
The change of the insulin after administration ([4]; 1 mg/kg, 3 hr): 12.6 ± 2.4 U/mL
The change of the insulin after administration ([4]; 1 mg/kg, 4 hr): 6.7 ± 2.4 U/mL
The change of the fasting blood glucose after administration ([4]; 1 mg/kg, 6 hr): 0.1 ± 0.5 mg/dL
The change of the insulin after administration ([4]; 1 mg/kg, 6 hr): 1.8 ± 0.7 U/mL
The change of the fasting blood glucose after administration ([4]; 2 mg/kg, 1 hr): 4.3 ± 0.4 mg/dL
The change of the insulin after administration ([4]; 2 mg/kg, 1 hr): 26.4 ± 1.3 U/mL
The change of the fasting blood glucose after administration ([4]; 2 mg/kg, 2 hr): 2.5 ± 0.2 mg/dL
The change of the insulin after administration ([4]; 2 mg/kg, 2 hr): 30.6 ± 4.6 U/mL
The change of the insulin after administration ([4]; 2 mg/kg, 3 hr): 13.8 ± 3.6 U/mL
The change of the insulin after administration ([4]; 2 mg/kg, 4 hr): 9.5 ± 1.7 U/mL
The change of the fasting blood glucose after administration ([4]; 2 mg/kg, 6 hr): 0.3 ± 0.7 mg/dL
The change of the insulin after administration ([4]; 2 mg/kg, 6 hr): 4.6 ± 0.8 U/mL
The change of the fasting blood glucose after administration ([4]; 3 mg/kg, 1 hr): 5.2 ± 0.9 mg/dL
The change of the insulin after administration ([4]; 3 mg/kg, 1 hr): 38.2 ± 3.8 U/mL
The change of the fasting blood glucose after administration ([4]; 3 mg/kg, 2 hr): 1.7 ± 0.1 mg/dL
The change of the insulin after administration ([4]; 3 mg/kg, 2 hr): 32.6 ± 6.4 U/mL
The change of the insulin after administration ([4]; 3 mg/kg, 3 hr): 21.4 ± 2.6 U/mL
The change of the insulin after administration ([4]; 3 mg/kg, 4 hr): 18.4 ± 2.4 U/mL
The change of the fasting blood glucose after administration ([4]; 3 mg/kg, 6 hr): -0.1 ± 0.3 mg/dL
The change of the insulin after administration ([4]; 3 mg/kg, 6 hr): 7.4 ± 3.6 U/mL
The change of the fasting blood glucose after administration ([4]; 4 mg/kg, 1 hr): 5.7 ± 0.8 mg/dL
The change of the insulin after administration ([4]; 4 mg/kg, 1 hr): 37.4 ± 3.6 U/mL
The change of the fasting blood glucose after administration ([4]; 4 mg/kg, 2 hr): 1.5 ± 0.2 mg/dL
The change of the insulin after administration ([4]; 4 mg/kg, 2 hr): 47.3 ± 2.3 U/mL
The change of the insulin after administration ([4]; 4 mg/kg, 3 hr): 27.8 ± 2.8 U/mL
The change of the insulin after administration ([4]; 4 mg/kg, 4 hr): 14.8 ± 3.7 U/mL
The change of the fasting blood glucose after administration ([4]; 4 mg/kg, 6 hr): -0.3 ± 0.1 mg/dL
The change of the insulin after administration ([4]; 4 mg/kg, 6 hr): 2.8 ± 0.5 U/mL
The ratio of the antiplatelet aggregation [5]: 89 ± 3.4 %
PABP [6]: 13 ± 1.7 mmHg
Changing % of the lung TGF-β (TGF-β): 52 ± 5.2 %
hypertrophy (g)/body weight (g) [7]: 0.21 ± 0.04
growth of the virus (in words) (H1N1 virus; in glucose solution): can inhibit the growth of the virus
IC50 (H1N1 virus; n=6): 5.2 µg/mL
IC50 (L1210 leukemia cell line): 26 nM
TRAP-Positive Cells (RAW 264.7 cells): 80 ± 6
